Laboratory results taken from paper PMC8869984, “Multifunctional Silver(I) Complexes with Metronidazole Drug Reveal Antimicrobial Properties and Antitumor Activity against Human Hepatoma and Colorectal Adenocarcinoma Cells” (Cancers, 2022).

Key:
[1] = tested on: Caco-2 cells; experiment: MTT assay (mitochondrial activity), 72 h exposure; type: cell-based, human; conditions: Caco-2, MTT, Figure 6
[2] = tested on: Caco-2 cells; experiment: NRU assay (lysosomal activity), 72 h exposure; type: cell-based, human; conditions: Caco-2, NRU, Figure 6
[3] = tested on: Caco-2 cells; experiment: TPC assay (total protein content), 72 h exposure; type: cell-based, human; conditions: Caco-2, TPC, Figure 6
[4] = tested on: Caco-2 cells; experiment: LDH leakage assay (membrane integrity), 72 h exposure; type: cell-based, human; conditions: Caco-2, LDH, Figure 6
[5] = tested on: S. aureus ATCC 25923; experiment: micro-dilution broth method (MIC, MBC); type: cell-based, Staphylococcus aureus
[6] = tested on: S. epidermidis ATCC 12228; experiment: micro-dilution broth method (MIC, MBC); type: cell-based, Staphylococcus epidermidis
[7] = tested on: M. luteus ATCC 10240; experiment: micro-dilution broth method (MIC, MBC); type: cell-based, Micrococcus luteus
[8] = tested on: B. subtilis ATCC 6633; experiment: micro-dilution broth method (MIC, MBC); type: cell-based, Bacillus subtilis
[9] = tested on: B. cereus ATCC 10876; experiment: micro-dilution broth method (MIC, MBC); type: cell-based, Bacillus cereus
[10] = tested on: E. faecalis ATCC 29212; experiment: micro-dilution broth method (MIC, MBC); type: cell-based, Enterococcus faecalis
[11] = tested on: A. israeli ATCC 10049; experiment: micro-dilution broth method (MIC, MBC); type: cell-based, Actinomyces israelii
[12] = tested on: P. acnes ATCC 11827; experiment: micro-dilution broth method (MIC, MBC); type: cell-based, Propionibacterium acnes; conditions: P. acnes ATCC 11827, value in brackets
[13] = tested on: C. perfringens ATCC 13124; experiment: microbe, parasite or virus in culture; type: cell-based, Clostridium perfringens
[14] = tested on: C. jejunii ATCC 33291; experiment: micro-dilution broth method (MIC, MBC); type: cell-based, Campylobacter jejunii
[15] = tested on: H. pylori ATCC 43504; experiment: micro-dilution broth method (MIC, MBC); type: cell-based
[16] = tested on: S. typhimurium ATCC 14028; experiment: micro-dilution broth method (MIC, MBC); type: cell-based, Salmonella Typhimurium
[17] = tested on: E. coli ATCC 25922; experiment: micro-dilution broth method (MIC, MBC); type: cell-based, Escherichia coli
[18] = tested on: K. pneumoniae ATCC 13883; experiment: micro-dilution broth method (MIC, MBC); type: cell-based, Klebsiella pneumoniae
[19] = tested on: P. aeruginosa ATCC 9027; experiment: micro-dilution broth method (MIC, MBC); type: cell-based, Pseudomonas aeruginosa
[20] = tested on: B. fragilis ATCC 10240; experiment: micro-dilution broth method (MIC, MBC); type: cell-based, Bacteroides fragilis
[21] = tested on: P. intermedia ATCC 25611; experiment: micro-dilution broth method (MIC, MBC); type: cell-based
[22] = tested on: F. nucleatum ATCC 25586; experiment: micro-dilution broth method (MIC, MBC); type: cell-based, Fusobacterium nucleatum
[23] = tested on: V. parvula ATCC 10790; experiment: micro-dilution broth method (MIC, MBC); type: cell-based, Veillonella parvula
[24] = tested on: reference aerobic and anaerobic microorganisms (ATCC); experiment: micro-dilution broth method, whole panel of reference strains; type: cell-based; conditions: against the majority of tested bacterial strains
[25] = tested on: S. aureus biofilm; experiment: qualitative antibiofilm activity, confocal laser scanning microscope (CLSM); conditions: 500 mg/L, 24 h exposure
[26] = S. aureus ATCC 25923, value in brackets
[27] = S. epidermidis ATCC 12228, value in brackets
[28] = M. luteus ATCC 10240, value in brackets
[29] = B. subtilis ATCC 6633, value in brackets
[30] = B. cereus ATCC 10876, value in brackets
[31] = E. faecalis ATCC 29212, value in brackets
[32] = A. israeli ATCC 10049, value in brackets
[33] = C. perfringens ATCC 13124, value in brackets
[34] = C. jejunii ATCC 33291, value in brackets
[35] = H. pylori ATCC 43504, value in brackets
[36] = S. typhimurium ATCC 14028, value in brackets
[37] = E. coli ATCC 25922, value in brackets
[38] = K. pneumoniae ATCC 13883, value in brackets
[39] = P. aeruginosa ATCC 9027, value in brackets
[40] = B. fragilis ATCC 10240, value in brackets
[41] = P. intermedia ATCC 25611, value in brackets
[42] = F. nucleatum ATCC 25586, value in brackets
[43] = V. parvula ATCC 10790, value in brackets

Cc1ncc([N+](=O)[O-])n1CCO.Cc1ncc([N+](=O)[O-])n1CCO.O=[N+]([O-])[O-].[Ag+] [[Ag(MTZ)2NO3]]
lowest concentration with inhibition of mitochondrial activity [1]: 5.0 µM | lowest concentration with inhibition of lysosomal activity [2]: 5.0 µM | lowest concentration with decreased total protein content [3]: 10.0 µM | lowest concentration with significant (p ≤ 0.05) disintegration of cellular membranes [4]: 1.0 µM | MBC ([5]; S. aureus ATCC 25923): 62.5 mg/L | MIC ([5]; S. aureus ATCC 25923): 15.6 mg/L | MBC [5, 26]: 0.2 µM/mL | MIC [5, 26]: 0.049 µM/mL | MBC ([6]; S. epidermidis ATCC 12228): 62.5 mg/L | MIC ([6]; S. epidermidis ATCC 12228): 7.8 mg/L | MBC [6, 27]: 0.2 µM/mL | MIC [6, 27]: 0.025 µM/mL | MBC ([7]; M. luteus ATCC 10240): 62.5 mg/L | MIC ([7]; M. luteus ATCC 10240): 7.8 mg/L | MBC [7, 28]: 0.2 µM/mL | MIC [7, 28]: 0.025 µM/mL | MBC ([8]; B. subtilis ATCC 6633): 15.6 mg/L | MIC ([8]; B. subtilis ATCC 6633): 15.6 mg/L | MBC [8, 29]: 0.049 µM/mL | MIC [8, 29]: 0.049 µM/mL | MIC ([9]; B. cereus ATCC 10876): 62.5 mg/L | MBC [9, 30]: 0.4 µM/mL | MIC [9, 30]: 0.2 µM/mL | MBC ([10]; E. faecalis ATCC 29212): 62.5 mg/L | MIC ([10]; E. faecalis ATCC 29212): 31.3 mg/L | MBC [10, 31]: 0.2 µM/mL | MIC [10, 31]: 0.1 µM/mL | MBC ([11]; A. israeli ATCC 10049): 3.9 mg/L | MIC ([11]; A. israeli ATCC 10049): 0.49 mg/L | MBC [11, 32]: 0.012 µM/mL | MIC [11, 32]: 0.0015 µM/mL | MBC [12]: 0.4 µM/mL | MIC [12]: 0.4 µM/mL | MBC ([13]; C. perfringens ATCC 13124): 1.95 mg/L | MIC ([13]; C. perfringens ATCC 13124): 1.95 mg/L | MBC [13, 33]: 0.006 µM/mL | MIC [13, 33]: 0.006 µM/mL | MIC ([14]; C. jejunii ATCC 33291): 31.3 mg/L | MBC [14, 34]: 0.4 µM/mL | MIC [14, 34]: 0.1 µM/mL | MBC ([15]; H. pylori ATCC 43504): 15.6 mg/L | MIC ([15]; H. pylori ATCC 43504): 15.6 mg/L | MBC [15, 35]: 0.049 µM/mL | MIC [15, 35]: 0.049 µM/mL | MBC ([16]; S. typhimurium ATCC 14028): 31.3 mg/L | MIC ([16]; S. typhimurium ATCC 14028): 15.6 mg/L | MBC [16, 36]: 0.1 µM/mL | MIC [16, 36]: 0.049 µM/mL | MBC ([17]; E. coli ATCC 25922): 31.3 mg/L | MIC ([17]; E. coli ATCC 25922): 15.6 mg/L | MBC [17, 37]: 0.1 µM/mL | MIC [17, 37]: 0.049 µM/mL | MBC ([18]; K. pneumoniae ATCC 13883): 31.3 mg/L | MIC ([18]; K. pneumoniae ATCC 13883): 15.6 mg/L | MBC [18, 38]: 0.1 µM/mL | MIC [18, 38]: 0.049 µM/mL | MBC ([19]; P. aeruginosa ATCC 9027): 15.6 mg/L | MIC ([19]; P. aeruginosa ATCC 9027): 7.8 mg/L | MBC [19, 39]: 0.049 µM/mL | MIC [19, 39]: 0.025 µM/mL | MBC ([20]; B. fragilis ATCC 10240): 0.98 mg/L | MIC ([20]; B. fragilis ATCC 10240): 0.98 mg/L | MBC [20, 40]: 0.003 µM/mL | MIC [20, 40]: 0.003 µM/mL | MBC ([21]; P. intermedia ATCC 25611): 0.98 mg/L | MIC ([21]; P. intermedia ATCC 25611): 0.98 mg/L | MBC [21, 41]: 0.003 µM/mL | MIC [21, 41]: 0.003 µM/mL | MBC ([22]; F. nucleatum ATCC 25586): 0.98 mg/L | MIC ([22]; F. nucleatum ATCC 25586): 0.49 mg/L | MBC [22, 42]: 0.003 µM/mL | MIC [22, 42]: 0.0015 µM/mL | MBC ([23]; V. parvula ATCC 10790): 1.95 mg/L | MIC ([23]; V. parvula ATCC 10790): 1.95 mg/L | MBC [23, 43]: 0.006 µM/mL | MIC [23, 43]: 0.006 µM/mL | minimal inhibition concentration (MIC), range [24]: 0.24 to 250 µg/mL | effect on biofilm (CLSM, qualitative) [25]: significantly reduced biofilm density
